In general, pEC50 refers to −log10 of the EC50, conventionally taken in molar units. One may read the Emax as the greatest response seen or fitted, relative to the assay's reference.

Consider one compound from patent US20050288270A1, “New aminopyridine derivatives and their use as pharmaceuticals” (Pfizer Inc, priority 2004, published 2005).

pEC50: −log10 of the molar value.

The target in assay [1] is D2 receptor (Homo sapiens, UniProt P14416). The assay can be described thus: D3/D2 agonist assay, functional response at D2 receptor. The assay is classed as cell-based. To be noted: at 1000 nM; relative to the maximal effect of pramipexole. The procedure:
(§1) Activity at the dopamine D3 receptor may be determined using the methods described in WO 2004/052372. […] Selectivity is calculated as the D2 EC50 value divided by the D3 EC50 value. Where the value of the D2 EC50 was >10000, a figure of 10000 was used in the calculation.

Assay [2] concerns the target dopamine D3 receptor (Homo sapiens, UniProt P35462). As to the kind of experiment: D3/D2 agonist assay, functional potency at D3 receptor. The format is cell-based. The procedure:
as §1

dopamine D3 receptor, sequence (P35462 whole entry): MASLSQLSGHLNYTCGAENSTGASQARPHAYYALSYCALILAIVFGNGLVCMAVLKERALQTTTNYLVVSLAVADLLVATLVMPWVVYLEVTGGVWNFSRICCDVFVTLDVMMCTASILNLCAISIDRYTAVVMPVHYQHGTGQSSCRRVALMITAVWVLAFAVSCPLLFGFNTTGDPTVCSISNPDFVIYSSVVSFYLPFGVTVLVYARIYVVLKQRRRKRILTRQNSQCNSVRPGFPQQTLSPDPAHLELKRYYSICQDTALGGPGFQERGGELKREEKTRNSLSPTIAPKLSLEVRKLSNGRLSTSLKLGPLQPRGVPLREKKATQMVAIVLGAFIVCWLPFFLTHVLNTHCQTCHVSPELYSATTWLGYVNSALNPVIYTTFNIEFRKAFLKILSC
D2 receptor, sequence (P14416 whole entry): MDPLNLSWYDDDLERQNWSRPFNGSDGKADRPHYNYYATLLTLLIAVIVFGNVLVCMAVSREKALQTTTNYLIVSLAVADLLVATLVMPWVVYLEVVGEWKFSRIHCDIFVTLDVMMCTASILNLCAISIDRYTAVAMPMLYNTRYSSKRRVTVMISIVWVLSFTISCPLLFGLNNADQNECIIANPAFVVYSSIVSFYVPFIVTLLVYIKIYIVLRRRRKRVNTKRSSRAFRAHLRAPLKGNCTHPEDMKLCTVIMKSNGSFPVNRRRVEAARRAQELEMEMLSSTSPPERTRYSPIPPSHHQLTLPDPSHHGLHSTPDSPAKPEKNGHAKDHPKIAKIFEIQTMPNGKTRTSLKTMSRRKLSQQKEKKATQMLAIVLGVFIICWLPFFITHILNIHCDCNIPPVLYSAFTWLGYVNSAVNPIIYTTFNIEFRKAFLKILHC

`CCCN1CC(c2ccc(N)nc2)OCC1CO` (single isomer, unassigned) [Example 14, [6-(6-Aminopyridin-3-yl)-4-propylmorpholin-3-yl]methanol]: in assay [1], the “response against the D2 receptor” value turned out to be 22%. Moreover, in assay [2] (agonist, read-out: functional potency at the D3 receptor, expressed as an EC50), the pEC50 is 7.70. In addition, in assay [2] (relative to the maximal effect of standard agent pramipexole, read-out: Emax (maximal response value)), the Emax came out at 98%.
